In patent US5856334A, “Imidazoquinoline derivatives” (Mochida Pharmaceutical Co., Ltd., priority 1994, dated 1999):
Values joined by “and” are separate entries in the source; they are usually repeats but may differ in a detail not shown here. Identical values can stand only once.

Tests used:
[1] = test system: intraperitoneal eosinophils; assay: Activity on Mouse Intraperitoneal Hypereosinophilic Model (Ascaris suum extract sensitization); assay type: in vivo, BALB/c male mice; settings: peroral, once a day, 10 administrations
Procedure: BALB/c male mice (body weight=ca. 25 g), divided in groups each consisting of five animals, were sensitized by intraperitoneal injection of physiological saline (0.11 mL) containing 0.1 mg of Ascaris suum extract. Seven days later, the same treatment was conducted; three days later, the animals were bled to death and injected intraperitoneally with 3 mL of physiological saline containing 1% dipotassium ethylenediaminetetraacetate (EDTA) and massaged on the abdominal part for about 30 sec. The abdominal part was incised to collect the intraperitoneal fluid, which was centrifuged at 130×g for 10 min. Fetal bovine serum (500 μl) containing 1% EDTA was added to the pellet to prepare a cell suspension. Part of the cell suspension was smeared on a glass slide with a centrifugal smearing device and subjected to Difquick staining. Thereafter, the total white blood cell (WBC) count and the eosinophil count were taken to determine the percentage of eosinophils in the total WBC. The total number of WBCs in the cell suspension was measured with an automatic hemocytometer. Multiplying the percentage of eosinophils in the total WBC by the total number of WBCs provided the number of eosinophils in the cell suspension. […] The mice neither sensitized nor administered the test compounds (untreated group), as well as the mice that were sensitized but not administered the test compounds (control group) were similarly administered 5% aqueous gum arabic perorally. Inhibition of the Increase in Eosinophils (%)={1-(test compound administered group-untreated group)/(control group-untreated group)}×100

[2] = Experiment on Acute Toxicity (oral, survival until 7th day); parameters: species or system ICR male mice; settings: mouse, in vivo, 1000 mg/kg, peroral, until the 7th day of the administration, read-out: No. of Survivals (converted)
From the text: ICR male mice (body weight=ca. 35 g) weighing about 30 g were divided in groups each consisting of one or three animals and administered perorally each of the test compounds as suspended in 5% aqueous gum arabic. The mice were then examined for their survival until the 7th day of the administration.

[3] = test system: eosinophils in BALF; assay: Activity on Model for the Increase of Eosinophils in the Rat Bronchial Alveolar Lavage Fluid (Sephadex G200 sensitization); assay type: in vivo, Sd male rats; settings: peroral, once a day, 10 administrations
Procedure: Sd male rats (8 wk old), divided in groups each consisting of five animals, were sensitized by an intravenous injection into tail vein of Sephadex G200 suspension (1 mL), that had been prepared to give a concentration of 0.75 mg/ml physiological saline. Seven days later, the same treatment was conducted; three days later, each rat was fitted with an tracheal cannula under anesthetization with pentobarbital and 7 mL of physiological saline containing 1% EDTA was injected via the cannula and recovered; this procedure was repeated three times to collect the BALF, which were centrifuged at 130×g for 10 min. Physiological saline (200 μl) containing 1% EDTA was added to the pellet to prepare a cell suspension. Part of the cell suspension was resuspended in fetal bovine serum containing 1% EDTA, smeared on a glass slide with a centrifugal smearing device and subjected to Difquick staining. Thereafter, the total WBC count and the eosinophil count were taken to determine the percentage of eosinophils in the total WBC. The total number of WBCs in the cell suspension was measured with a hemocytometer after staining with a Turck solution. Multiplying the percentage of eosinophils in the total WBC by the total number of WBCs provided the number of eosinophils in the cell suspension.
Each of the test compounds was suspended in 5% aqueous gum arabic and administered perorally to mice immediately after the initial sensitization on a once-a-day basis for a total of 10 administrations (test compound-treated group). The mice neither sensitized nor administered the test compounds (untreated group), as well as the mice that were sensitized but not administered the test compounds (control group) were similarly administered 5% aqueous gum arabic perorally.
Inhibition of the Increase of Eosinophils (%)={1-(test compound
administered group-untreated group)/(control group-untreated

## O=C(O)c1cccc(COC2CCn3c(CCc4ccccc4)nc4cccc2c43)c1C(=O)O (centres unmarked) [Example 64, 6-(2,3-dicarboxyphenyl)methoxy-5,6-dihydro-2-(2-phenylethyl)-4H-imidazo[4,5,1-ij]quinoline]
[1]; 30 mg/kg/day
  Inhibition of the Increase of Eosinophils (%): 57%

## c1ccc(CCc2nc3cccc4c3n2CCC4)cc1 [Example 13, 5,6-dihydro-2-(2-phenylethyl)-4H-imidazo[4,5,1-ij]quinoline]
[1]; 30 mg/kg/day
  Inhibition of the Increase of Eosinophils (%): 49%
[1]; 100 mg/kg/day
  Inhibition of the Increase of Eosinophils (%): 64%
[2]
  survival at 168 h: 100%

## O=C1CCn2c(CCc3ccccc3)nc3cccc1c32 [Example 1, 4,5-dihydro-2-(2-phenylethyl)-6H-imidazo[4,5,1-ij]quinolin-6-one]
[1]; 30 mg/kg/day
  Inhibition of the Increase of Eosinophils (%): 48%
[1]; 100 mg/kg/day
  Inhibition of the Increase of Eosinophils (%): 68%
[3]; 30 mg/kg/day
  Inhibition of the Increase of Eosinophils in BALF (%): 68%
[2]
  survival at 168 h: 100%

## OC1CCn2c(CCc3ccccc3)nc3cccc1c32 (single isomer, unassigned; (+)) [Example 11, (+)-5,6-dihydro-2-(2-phenylethyl)-4H-imidazo[4,5,1-ij]quinolin-6-ol]
[1]; 30 mg/kg/day
  Inhibition of the Increase of Eosinophils (%): 43%

## CC(=O)OCC(=O)[C@@]1(O)CC[C@H]2[C@@H]3CCC4=CC(=O)C=C[C@]4(C)[C@H]3[C@@H](O)C[C@@]21C [Prednisolone Acetate, 11β, 17α, 21-trihydroxypregna-1,4-diene-3,20-dione 21-acetate, reference compound]
[1]; 10 mg/kg/day
  Inhibition of the Increase of Eosinophils (%): 65%
[3]; 10 mg/kg/day
  Inhibition of the Increase of Eosinophils in BALF (%): 76% and 69%

## OC1CCn2c(CCc3ccccc3)nc3cccc1c32 (centres unmarked) [Example 4, 5,6-dihydro-2-(2-phenylethyl)-4H-imidazo[4,5,1-ij]quinolin-6-ol]
[1]; 30 mg/kg/day
  Inhibition of the Increase of Eosinophils (%): 67%
[1]; 100 mg/kg/day
  Inhibition of the Increase of Eosinophils (%): 57%
[3]; 30 mg/kg/day
  Inhibition of the Increase of Eosinophils in BALF (%): 90%
[2]
  survival at 168 h: 100%

## O=C(O)c1ccccc1COC1CCn2c(CCc3ccccc3)nc3cccc1c32 (single isomer, unassigned; (+)) [Example 24, (+)-6-(2-carboxyphenyl)methoxy-5,6-dihydro-2-(2-phenylethyl)-4H-imidazo[4,5,1-ij]quinoline]
[1]; 30 mg/kg/day
  Inhibition of the Increase of Eosinophils (%): 45%

## O=C(O)c1ccccc1C(=O)OC1CCn2c(CCc3ccccc3)nc3cccc1c32 (centres unmarked) [Example 41, 5,6-dihydro-6-(o-carboxybenzoyloxy)-2-(2-phenylethyl)-4H-imidazo[4,5,1-ij]quinoline]
[2]
  survival at 168 h: 100%

## CON=C1CCn2c(CCc3ccccc3)nc3cccc1c32 [Example 35, 5,6-dihydro-6-methoxyimino-2-(2-phenylethyl)-4H-imidazo[4,5,1-ij]quinoline]
[3]; 30 mg/kg/day
  Inhibition of the Increase of Eosinophils in BALF (%): 73%
[2]
  survival at 168 h: 100%

## Cl.NC1CCn2c(CCc3ccccc3)nc3cccc1c32 (centres unmarked) [Example 18, 5,6-dihydro-2-(2-phenylethyl)-4H-imidazo[4,5,1-ij]quinolin-6-amine hydrochloride]
[1]; 30 mg/kg/day
  Inhibition of the Increase of Eosinophils (%): 53%
